Results on ten molecules are retold here after ChEMBL document CHEMBL1201862, “PubChem BioAssay data set” (2004).

Test systems include MCF7; HOP-62; SNB-19; HCC 2998; DU-145; SW-620; HCT-15; K562; CCRF-CEM; NCI/ADR-RES; SNB-75; OVCAR-8; PC-3; UO-31; NCI-H23; NCI-H460; SK-OV-3; T47D; COLO 205; ACHN.
Holding throughout (experiment): DTP human tumour cell line panel, 48 h

The structures appear in SMILES notation.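 Cultured in 96-well plates, cells were exposed to test compound for 48 hours across five concentrations. At the GI50, growth is halved.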 Active and inactive are the calls of the source. No stated cut-off is given here; in the data, active = GI50 up to about 1.1 µM and inactive = higher.

`C=C1C/C(=C/C)C(=O)O[C@@H]2CCN3CC=C(COC(=O)[C@]1(C)O)[C@H]23` [SENECIPHYLLINE]: the GI50 in the test on MCF7, with HOP-62, with SNB-19, in the test with HCC 2998, with DU-145 and in the test with SW-620 was > 100 µM (inactive) in each case. Besides, the GI50 was over 100 µM in the test on HCT-15; > 100 µM (inactive) in the test on K562; > 100 µM (inactive) with CCRF-CEM; > 100 µM (inactive) in the test with NCI/ADR-RES; > 100 µM (inactive) in the test on SNB-75; > 100 µM (inactive) in the test with OVCAR-8. Further, the GI50 with PC-3 was > 100 µM (inactive); with UO-31 it was > 100 µM (inactive); in the test with NCI-H23 it was > 100 µM (inactive); with NCI-H460 it was 84.9 µM (inactive); in the test with SK-OV-3, > 100 µM (inactive); with T47D, > 100 µM (inactive). The GI50 with COLO 205 and in the test with ACHN was > 100 µM (inactive) throughout.
`N#C/C(=C\c1ccc([N+](=O)[O-])o1)c1n[nH]c(Cc2ccccc2)n1`: the GI50 in the test with MCF7 is 2.28 µM (inactive); in the test with HOP-62 it was 2.62 µM (inactive); in the test with SNB-19 it was 4.93 µM (inactive); with HCC 2998, 1.63 µM (inactive); with DU-145, 1.57 µM (inactive); in the test on SW-620, 0.277 µM (active). The GI50 in the test on HCT-15 is 0.281 µM; with K562 it was 1.55 µM (inactive); in the test on CCRF-CEM it was 0.265 µM (active); with NCI/ADR-RES, 2.79 µM (inactive); in the test with SNB-75 it was 2.52 µM (inactive); in the test with OVCAR-8 it was 2.84 µM (inactive). Further, the GI50 was 2.45 µM (inactive) in the test with PC-3; 2.66 µM (inactive) in the test with UO-31; 1.21 µM (inactive) in the test with NCI-H23; 3.3 µM (inactive) with NCI-H460; 4.52 µM (inactive) in the test on SK-OV-3; 2 µM (inactive) with T47D. The GI50 with COLO 205 was 1.23 µM (inactive); in the test with ACHN, 1.78 µM (inactive).
In the case of `CN(C)CC1CCCCCC(Br)C1=O` (stereo not given), the GI50 is 2.71 µM (inactive) in the test on MCF7; 24.8 µM (inactive) with HOP-62; > 83.2 µM (inactive) in the test with SNB-19; 4.57 µM (inactive) with HCC 2998; 12.1 µM (inactive) with DU-145; 3.71 µM (inactive) in the test with SW-620. The GI50 with HCT-15 is 9.23 µM; in the test on K562, 2.02 µM (inactive); with CCRF-CEM, 0.352 µM (active); with NCI/ADR-RES it was 13.9 µM (inactive); in the test with SNB-75, 37.2 µM (inactive); in the test with OVCAR-8, 13 µM (inactive). The GI50 with PC-3 was 21.3 µM (inactive); with UO-31, 13.6 µM (inactive); in the test on NCI-H23, 13.4 µM (inactive); with NCI-H460 it was 17.7 µM (inactive); with SK-OV-3, > 100 µM (inactive); with T47D, 9.23 µM (inactive). The GI50 was 11.5 µM (inactive) in the test with COLO 205 and 6.79 µM (inactive) in the test with ACHN.
As for `CCCCCCCCCCCC[C@@H](O)[C@H]1CC[C@H]([C@H](O)CCCC[C@H](O)CCCCC[C@@H](O)CC2=C[C@H](C)OC2=O)O1`, the GI50 in the test with MCF7 was 1.64 µM (inactive); in the test with HOP-62 it was 2.59 µM (inactive); in the test on SNB-19, 2.83 µM (inactive); with HCC 2998, 3.43 µM (inactive); in the test on DU-145, 6.4 µM (inactive); in the test on SW-620 it was 3.22 µM (inactive). For the same molecule, the GI50 was 2.39 µM in the test on HCT-15; 0.213 µM (active) in the test with K562; 1.18 µM (inactive) in the test on CCRF-CEM; 1.25 µM (inactive) with NCI/ADR-RES; 2.92 µM (inactive) in the test on SNB-75; 3.74 µM (inactive) in the test with OVCAR-8. For the same molecule, the GI50 in the test with PC-3 is 1.53 µM (inactive); in the test on UO-31, 1.05 µM (active); with NCI-H23, 0.034 µM (active); in the test with NCI-H460, 2.07 µM (inactive); with SK-OV-3 it was 4.03 µM (inactive); with T47D, 2.39 µM (inactive). In addition, the GI50 with COLO 205 is 1.75 µM (inactive); in the test with ACHN, 0.116 µM (active).
Turning to `CCOC(=O)/C=C(/C(=O)OCC)n1cc(C)c(=O)n(Cc2cn(COCCOC(C)=O)nn2)c1=O`, the GI50 was 16.5 µM (inactive) with MCF7; > 100 µM (inactive) in the test with HOP-62; > 52.6 µM (inactive) in the test on SNB-19; 17.3 µM (inactive) in the test on HCC 2998; 36.3 µM (inactive) with DU-145; 6.84 µM (inactive) in the test on SW-620. Further, the GI50 was 20.7 µM with HCT-15; 7.18 µM (inactive) in the test with K562; 0.984 µM (active) in the test with CCRF-CEM; 21 µM (inactive) with NCI/ADR-RES; 33.2 µM (inactive) with SNB-75; 16.2 µM (inactive) in the test with OVCAR-8. The GI50 in the test on PC-3 was 37.3 µM (inactive); in the test on UO-31, 1.07 µM (active); in the test with NCI-H23 it was 6.18 µM (inactive); in the test on NCI-H460 it was > 40.6 µM (inactive); in the test with SK-OV-3, > 100 µM (inactive); in the test with T47D, 25.8 µM (inactive). Besides, the results for the GI50 with COLO 205 and in the test on ACHN were 7.82 µM (inactive) and 7.06 µM (inactive), respectively.
In the case of `C/C=C1/CN2CCC34c5ccccc5N5C(=O)C(C6CC78c9ccccc9N9C(=O)C=CC(C%10CC7N6C/C%10=C/C)C98)=CC(C1CC23)C54` (stereo not given), the GI50 with MCF7 was 2.13 µM (inactive); in the test on HOP-62, 8.59 µM (inactive); in the test with SNB-19, 7.87 µM (inactive); in the test with HCC 2998, 5.9 µM (inactive); with DU-145 it was 7.71 µM (inactive); with SW-620, 1.59 µM (inactive). The concentration for 50% growth inhibition (GI50) with HCT-15 is 3.75 µM; with K562, 1.62 µM (inactive); in the test with CCRF-CEM, 0.501 µM (active); with NCI/ADR-RES, 8.34 µM (inactive); in the test on SNB-75, 6.62 µM (inactive); in the test with OVCAR-8, 2.06 µM (inactive). Moreover, the GI50 in the test on PC-3 is 2.1 µM (inactive); with UO-31, 2.84 µM (inactive); with NCI-H23, 5.98 µM (inactive); in the test on NCI-H460, 6.65 µM (inactive); with SK-OV-3, 9.79 µM (inactive); in the test on T47D it was 11.1 µM (inactive). Moreover, the GI50 was 5.09 µM (inactive) in the test with COLO 205 and 7 µM (inactive) in the test on ACHN.
In the case of `COC(=O)C1=C(C)NC(C)=C(C(=O)OC)C1c1cccc(/[N+]([O-])=C/c2ccccc2)c1`, the GI50 is 17.8 µM (inactive) in the test on MCF7; > 100 µM (inactive) in the test on HOP-62; > 100 µM (inactive) with SNB-19; > 100 µM (inactive) in the test on HCC 2998; 78 µM (inactive) in the test on DU-145; 21.3 µM (inactive) with SW-620. The GI50 with HCT-15 was 17.1 µM; in the test with K562, > 10 µM (inactive); in the test with CCRF-CEM, 11 µM (inactive); in the test on NCI/ADR-RES, 23.2 µM (inactive); in the test on SNB-75, 41.7 µM (inactive); with OVCAR-8, 17.5 µM (inactive). The GI50 with PC-3 is 46.7 µM (inactive); with UO-31 it was 34.2 µM (inactive); with NCI-H23, 33.3 µM (inactive); with NCI-H460, 97.9 µM (inactive); in the test on SK-OV-3, > 100 µM (inactive); with T47D, 17.3 µM (inactive). For the same molecule, the GI50 is 16.8 µM (inactive) in the test with COLO 205 and 17.1 µM (inactive) in the test with ACHN.
For `CCOC(=O)OC1C(Br)C2CCC1(C)C2(C)C` (stereo not given), the GI50 in the test on MCF7 was 15 µM (inactive); in the test with HOP-62, 16.6 µM (inactive); with SNB-19, 14.6 µM (inactive); with HCC 2998, 12.3 µM (inactive); with DU-145, 18.7 µM (inactive); in the test on SW-620, 16.1 µM (inactive). The GI50 with HCT-15 was 13.7 µM; in the test with K562, 5.79 µM (inactive); in the test on CCRF-CEM it was 4.88 µM (inactive); in the test with NCI/ADR-RES, 15.5 µM (inactive); in the test on SNB-75 it was 11.1 µM (inactive); in the test on OVCAR-8, 16 µM (inactive). Besides, the GI50 in the test with PC-3 is 11.3 µM (inactive); with UO-31, 12 µM (inactive); with NCI-H23, 17.2 µM (inactive); in the test on NCI-H460, 4.79 µM (inactive); in the test with SK-OV-3, 15.7 µM (inactive); with T47D it was 15.6 µM (inactive). For the same molecule, the GI50 in the test with COLO 205 was 13 µM (inactive); in the test on ACHN, 15.3 µM (inactive).
Regarding `C[C@@H]1CC[C@@]2(OC1)O[C@H]1C[C@H]3[C@@H]4CC[C@H]5C[C@@H](OC6OC(CO)C(OC7OC(CO)C(O)C(OC8OCC(O)C(O)C8O)C7OC7OC(CO)C(O)C(O)C7O)C(O)C6O)[C@H](O)C[C@]5(C)[C@H]4CC[C@]3(C)[C@H]1[C@@H]2C` (stereo not given in full), the GI50 was 0.804 µM (active) with MCF7; 1.42 µM (inactive) in the test with HOP-62; 10.1 µM (inactive) in the test with SNB-19; 12.3 µM (inactive) in the test with HCC 2998; 2.42 µM (inactive) in the test with DU-145; 4.19 µM (inactive) in the test on SW-620. Further, the GI50 in the test with HCT-15 is 3.4 µM; in the test with K562, 2.11 µM (inactive); in the test on CCRF-CEM it was 0.693 µM (active); in the test with NCI/ADR-RES, 2.52 µM (inactive); in the test with SNB-75, 13.6 µM (inactive); in the test with OVCAR-8 it was 2.97 µM (inactive). Also, the GI50 was 3.15 µM (inactive) with PC-3; 4.52 µM (inactive) in the test on UO-31; 2.11 µM (inactive) in the test on NCI-H23; 1.85 µM (inactive) with NCI-H460; 10.8 µM (inactive) in the test on SK-OV-3; 5.38 µM (inactive) in the test on T47D. Also, the GI50 in the test on COLO 205 is 2.46 µM (inactive); with ACHN it was 2.75 µM (inactive).
`CS(=O)(=O)N1CC(CCl)c2ccc(NCCN)cc21` (stereo not given): the GI50 with MCF7 is > 100 µM (inactive); in the test on HOP-62 it was 14.8 µM (inactive); with SNB-19 it was 39 µM (inactive); in the test on HCC 2998, > 100 µM (inactive); with DU-145, > 100 µM (inactive); in the test on SW-620, > 100 µM (inactive). For the same molecule, the GI50 with HCT-15 is over 100 µM; in the test with K562 it was > 100 µM (inactive); with CCRF-CEM, 79.8 µM (inactive); with NCI/ADR-RES, > 100 µM (inactive); in the test with SNB-75, 17.1 µM (inactive); in the test on OVCAR-8, 57.5 µM (inactive). The GI50 with PC-3 is > 100 µM (inactive); in the test on UO-31, > 100 µM (inactive); in the test with NCI-H23, 53.7 µM (inactive); in the test with NCI-H460, > 100 µM (inactive); in the test on SK-OV-3, 22.1 µM (inactive); in the test with T47D, > 100 µM (inactive). In addition, the GI50 is > 100 µM (inactive) with COLO 205 and 29.9 µM (inactive) with ACHN.
